Assay results published in US10894043B2, “Pharmaceutical composition” (Kyowa Kirin Co., Ltd., priority 2016, dated 2021).

Experiments:
[1] = system: laser-induced choroidal neovascularization model of a cynomolgus monkey; test: Test Example 8: laser-induced choroidal neovascularization model of cynomolgus monkey, incidence of grade 4 by fluorescein fundus angiography; type: in vivo; settings: n = 6
Procedure: Twenty-one days before the start of drug administration, both the eyes of each animal (all cases) were irradiated with laser to prepare animal models. Drops of a mydriatic agent were placed in the animal eyes to be irradiated. After confirmation of mydriasis, a mixed solution of ketamine hydrochloride (50 mg/mL) and an aqueous xylazine solution (20 mg/mL) [7:1 (v/v)] was intramuscularly administered (0.2 mL/kg or 10 mg/kg) to each animal. An appropriate amount of a special aid for contact lens placement to the cornea (Scopisol Solution for Eye) was added dropwise to an eyepiece of a retinal laser lens. The retinal laser lens was pressure-bonded to the eyes to be irradiated, and a yellow spot was confirmed. After the confirmation of a yellow spot, 8 sites around the yellow spot excluding the central pit were irradiated with green laser (wavelength: 532 nm, irradiation spot size: 80 μm, irradiation time: 0.1 sec, output: 1000 mW) using a multicolor laser photocoagulator (MC-500, Nidek Co., Ltd.).
According to the test configuration shown in Table 46, a vehicle, the nanoparticle composition of the present invention prepared according to Example 1, and the solution composition obtained in Comparative Example 2 were administered four times a day by ocular instillation for 35 days to the animal. Aflibercept (EYLEA(Registered Trademark) solution for intravitreal injection, Bayer Corp.) was intravitreally injected (once) to the animal.
Ophthalmoscopic examination was carried out during the acclimatization period (day −1) and during the administration period (administration days 7, 14, 21, 28 and 34). Macroscopic examination and light reflex examination were carried out using a portable slit lamp (SL-15, Kowa Co., Ltd.). Drops of a mydriatic agent were placed in the animal eyes. After confirmation of mydriasis, ketamine hydrochloride (50 mg/mL) was intramuscularly administered (0.2 mL/kg or 10 mg/kg) to each animal. The anterior segment of the eye and the ocular media were examined using a portable slit lamp, while the eyegrounds were examined using a head-type binocular indirect ophthalmoscope (IO-aSmall Pupil, Neitz Instruments Co., Ltd.). The eyegrounds were photographed using a fundus camera (VX-10a, Kowa Co., Ltd.) in all cases.
Fluorescein fundus angiography was carried out during the acclimatization period (day −1) and during the administration period (administration days 7, 14, 21, 28 and 34). For examination, a contrast medium (Fluorescite Intravenous Injection 500 mg, Alcon Japan Ltd.) was administered (0.1 mL/kg or 0.1 mL/s) from the cephalic vein of the forearm under mydriasis and anesthesia of the macroscopic examination and the ophthalmoscopic examination. Approximately 1, 3, and 5 minutes after the contrast medium administration, photographs were taken using a fundus camera. Choroidal neovascular grading was carried out on an irradiation spot basis. The fluorescein fundus angiographic images were observed and graded on an irradiation spot basis according to the criteria of Table 47.
The incidences of grades 1 to 4 of each eye at each point in time of examination were each calculated according to the following expression: Incidence of grade (%)=The number of irradiation spots/8×100

[2] = system: laser-induced choroidal neovascularization model of a rat; test: Test Example 7: anti-angiogenic effect on laser-induced choroidal neovascularization model of rat; type: in vivo, Brown Norway rat; settings: 14 days after laser irradiation, ocular instillation twice a day 5 μL/eye (aflibercept: intravitreal 5 μL/eye once), n=12 or 13, * p<0.05 vs vehicle
Procedure: The mydriasis of the eyeballs of each male Brown Norway rat (n=12 or 13 for each group) was caused with mydriatic eye drops for examination. A ketamine hydrochloride/xylazine hydrochloride (7:1, v/v) mixed solution was intramuscularly administered (1 mL/kg) to the femur for general anesthesia. Then, the right eyeground was observed using a slit lamp, and 8 sites in the retina were irradiated with laser (wavelength: 532 nm, spot size: 80 μm, irradiation time: 0.05 sec, output: 120 mW) using a multicolor laser photocoagulator to prepare laser-induced choroidal neovascularization model animals.
A vehicle of Example 1 or the nanoparticle composition of the present invention obtained in each of Examples 1 and 2 was administered twice a day by ocular instillation (5 μL/eye, 6 hr:18 hr interval) to each model animal from immediately after the laser irradiation to 14 days after the laser irradiation. […]
A choroidal neovascular site was photographed using a confocal microscope (Nikon ECLIPSE TE 2000-U). For choroidal neovascular evaluation, an area (unit: pixel) that contained a newly formed blood vessel and was at the inner side relative to the highest raised portion was calculated using ImageJ (National Institutes of Health). […]

Aflibercept [Aflibercept (EYLEA)]
Incidence of grade 4 ([1]; administration day 7, mean): 4.2% | Incidence of grade 4 ([1]; administration day 14, mean): 4.2% | Incidence of grade 4 ([1]; administration day 21, mean): 4.2% | Incidence of grade 4 ([1]; administration day 28, mean): 4.2% | Incidence of grade 4 ([1]; administration day 34, mean): 4.2% | Incidence of grade 4 ([1]; day −1 (acclimatization period, before administration), mean): 43.8% | choroidal neovascularization area, mean [2]: 102931.7* pixel
